Experimental data from ChEMBL document CHEMBL4819004, “Discovery of selective CDK9 degraders with enhancing antiproliferative activity through PROTAC conversion” (Eur J Med Chem, 2021).

Key:
HepG2 = experiment: Antiproliferative activity against human HepG2 cells incubated for 72 hrs by MTT assay; assay type: functional, cell-based; conditions: HepG2, 72 h
A549 = experiment: Antiproliferative activity against human A549 cells incubated for 72 hrs by MTT assay; assay type: functional, cell-based; conditions: A549, 72 h
[1] = molecular target: T1, Protein cereblon/Cyclin-dependent kinase 9 (Homo sapiens, UniProt P50750+Q96SW2); experiment: Protac activity at CRBN/CDK9 in human MV4-11 cells assessed as CDK9 degradation rate at 500 nM incubated for 6 hrs by Western blot assay relative to control; assay type: cell-based
Target sequence in this assay (P50750 whole entry, looked up): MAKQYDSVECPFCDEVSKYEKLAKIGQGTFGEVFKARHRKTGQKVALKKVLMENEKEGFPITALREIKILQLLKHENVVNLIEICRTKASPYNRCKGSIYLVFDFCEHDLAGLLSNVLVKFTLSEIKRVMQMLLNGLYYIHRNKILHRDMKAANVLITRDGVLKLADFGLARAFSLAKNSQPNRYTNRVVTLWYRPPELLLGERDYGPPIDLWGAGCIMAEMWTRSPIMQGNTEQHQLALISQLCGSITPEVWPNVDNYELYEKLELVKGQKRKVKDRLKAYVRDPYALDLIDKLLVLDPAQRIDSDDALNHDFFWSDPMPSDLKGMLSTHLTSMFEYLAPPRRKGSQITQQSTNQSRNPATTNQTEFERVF
Target sequence in this assay (Q96SW2 whole entry, looked up): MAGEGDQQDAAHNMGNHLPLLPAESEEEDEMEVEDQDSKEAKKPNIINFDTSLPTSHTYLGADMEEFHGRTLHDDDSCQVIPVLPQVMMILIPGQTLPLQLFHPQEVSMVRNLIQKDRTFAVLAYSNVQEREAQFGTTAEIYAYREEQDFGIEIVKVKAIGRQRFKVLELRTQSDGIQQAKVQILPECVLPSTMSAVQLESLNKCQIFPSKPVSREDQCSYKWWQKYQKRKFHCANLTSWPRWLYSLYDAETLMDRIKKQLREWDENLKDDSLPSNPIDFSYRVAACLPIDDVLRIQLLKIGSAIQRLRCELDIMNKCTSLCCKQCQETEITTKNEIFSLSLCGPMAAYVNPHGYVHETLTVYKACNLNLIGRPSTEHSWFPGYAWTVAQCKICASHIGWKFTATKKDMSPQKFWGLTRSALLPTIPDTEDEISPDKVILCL

B16 = experiment: Antiproliferative activity against mouse B16 cells incubated for 72 hrs by MTT assay; assay type: functional, cell-based; conditions: B16, 72 h
MV4-11 [2] = experiment: Antiproliferative activity against human MV4-11 cells incubated for 72 hrs by MTT assay; assay type: functional, cell-based; conditions: MV4-11, 72 h
CDK9/cyclin T1 = CDK9/cyclin T1 (Homo sapiens, UniProt P50750); experiment: Inhibition of CDK9/cyclin T (unknown origin) using YSPTSPSYSPTSPSYSPTSPKKK or histone H1 as substrate incubated for 2 hrs in presence of [gamma-33P]ATP by radioactive filter binding assay; assay type: protein-complex assay
Sequence of CDK9/cyclin T1 (O60563 whole entry): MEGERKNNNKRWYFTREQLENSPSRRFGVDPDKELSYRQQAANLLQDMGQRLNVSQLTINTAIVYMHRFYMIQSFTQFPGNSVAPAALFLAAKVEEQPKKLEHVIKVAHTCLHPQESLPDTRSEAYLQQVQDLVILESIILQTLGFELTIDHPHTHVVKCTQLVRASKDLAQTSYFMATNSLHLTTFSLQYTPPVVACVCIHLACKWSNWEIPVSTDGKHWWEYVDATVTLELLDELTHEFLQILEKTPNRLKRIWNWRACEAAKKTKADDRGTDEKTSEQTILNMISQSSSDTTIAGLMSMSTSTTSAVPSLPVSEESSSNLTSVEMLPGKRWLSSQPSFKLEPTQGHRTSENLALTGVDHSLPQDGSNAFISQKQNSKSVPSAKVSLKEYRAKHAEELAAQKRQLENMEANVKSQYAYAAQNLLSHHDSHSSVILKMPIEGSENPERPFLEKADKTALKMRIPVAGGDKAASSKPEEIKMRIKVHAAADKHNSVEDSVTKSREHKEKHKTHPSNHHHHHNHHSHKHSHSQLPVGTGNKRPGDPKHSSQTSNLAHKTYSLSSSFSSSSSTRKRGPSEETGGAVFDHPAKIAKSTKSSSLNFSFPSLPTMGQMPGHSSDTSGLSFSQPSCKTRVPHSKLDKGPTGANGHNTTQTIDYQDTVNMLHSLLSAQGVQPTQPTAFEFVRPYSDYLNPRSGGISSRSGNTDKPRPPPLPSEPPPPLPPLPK
Sequence of CDK9/cyclin T1 (P50750 whole entry): as the sequence (P50750 whole entry, looked up) above

[3] = molecular target: T1, Protein cereblon/Cyclin-dependent kinase 9; experiment: Protac activity at CRBN/CDK9 in human MOLM-13 cells assessed as CDK9 degradation rate at 500 nM incubated for 6 hrs by Western blot assay relative to control; assay type: cell-based
Target sequence in this assay (P50750 whole entry, looked up): as above
Target sequence in this assay (Q96SW2 whole entry, looked up): as the sequence (Q96SW2 whole entry, looked up) above

HCT-116 = experiment: Antiproliferative activity against human HCT-116 cells incubated for 72 hrs by MTT assay; assay type: functional, cell-based; conditions: HCT-116, 72 h
MOLM-13 = experiment: Antiproliferative activity against human MOLM-13 cells incubated for 72 hrs by MTT assay; assay type: functional, cell-based; conditions: MOLM-13, 72 h
[4] = molecular target: T1, Protein cereblon/Cyclin-dependent kinase 9; experiment: Protac activity at CRBN/CDK9 in human MV4-11 cells assessed as induction of CDK9 degradation incubated for 6 hrs by Western blot assay; assay type: cell-based
Target sequence in this assay (P50750 whole entry): as the sequence (P50750 whole entry, looked up) above
Target sequence in this assay (Q96SW2 whole entry): as the sequence (Q96SW2 whole entry, looked up) above

MCF7 = experiment: Antiproliferative activity against human MCF7 cells incubated for 72 hrs by MTT assay; assay type: functional, cell-based; conditions: MCF7, 72 h
MV4-11 [5] = experiment: Induction of apoptosis in human MV4-11 cells assessed as total apoptotic cells at 500 nM after 6 hrs by AnnexinV-FITC/propidium iodide staining based flow cytometry (reference value: 9.75 %); assay type: functional
MV4-11 [6] = experiment: Induction of apoptosis in human MV4-11 cells assessed as early apoptotic cells at 500 nM after 6 hrs by AnnexinV-FITC/propidium iodide staining based flow cytometry (reference value: 5.36 %); assay type: functional
MV4-11 [7] = experiment: Induction of apoptosis in human MV4-11 cells assessed as late apoptotic cells at 500 nM after 6 hrs by AnnexinV-FITC/propidium iodide staining based flow cytometry (reference value: 4.29%); assay type: functional
MV4-11 [8] = experiment: Induction of apoptosis in human MV4-11 cells assessed as necrotic cells at 500 nM after 6 hrs by AnnexinV-FITC/propidium iodide staining based flow cytometry (reference value: 0.16 %); assay type: functional
MV4-11 [9] = experiment: Induction of apoptosis in human MV4-11 cells assessed as viable cells at 500 nM after 6 hrs by AnnexinV-FITC/propidium iodide staining based flow cytometry (reference value: 90.1 %); assay type: functional; conditions: read-out: Activity

SMILES | IC50 (HepG2) | IC50 (A549) | Activity [1] | IC50 (B16) | IC50 (MV4-11 [2]) | IC50 (CDK9/cyclin T1) | Activity [3] | IC50 (HCT-116) | IC50 (MOLM-13) | DC50 [4] | IC50 (MCF7) | Activity (MV4-11 [5]) | Activity (MV4-11 [6]) | Activity (MV4-11 [7]) | Activity (MV4-11 [8]) | viability at 0.5 µM (MV4-11 [9])
COc1cc(F)ccc1-c1ncnc(Nc2cccc(CS(C)(=O)=NC(=O)CCCC(=O)NCCNc3cccc4c3C(=O)N(C3CCC(=O)NC3=O)C4=O)c2)n1 (configuration not stated) | 19.1 µM | 35.6 µM | 100% | 22.1 µM | 0.46 µM | 0.0127 µM | 99% | 20.6 µM | 2.8 µM | 0.0273 µM | 24.8 µM | – | – | – | – | –
COc1cc(F)ccc1-c1ncnc(Nc2cccc(CS(C)(=O)=NC(=O)CCC(=O)CCC(=O)NCCCCCNc3cccc4c3C(=O)N(C3CCC(=O)NC3=O)C4=O)c2)n1 (configuration not stated) | 8.58 µM | 11.1 µM | 67% | 8.64 µM | 1.1 µM | 0.0857 µM | 45% | 4.77 µM | 0.74 µM | – | 15.5 µM | – | – | – | – | –
COc1cc(N2CCN(CCCCCCC(=O)NCCNc3cccc4c3C(=O)N(C3CCC(=O)NC3=O)C4=O)CC2)ccc1-c1ncnc(Nc2cccc(CS(C)(=N)=O)c2)n1 (configuration not stated) | > 50 µM | > 50 µM | 52% | > 50 µM | 3.8 µM | 6.56 µM | 7% | > 50 µM | > 50 µM | – | > 50 µM | – | – | – | – | –
COc1cc(N2CCN(CCCCCCCCCC(=O)NCCNc3cccc4c3C(=O)N(C3CCC(=O)NC3=O)C4=O)CC2)ccc1-c1ncnc(Nc2cccc(CS(C)(=N)=O)c2)n1 (configuration not stated) | > 50 µM | > 50 µM | 44% | > 50 µM | 2.6 µM | 6.34 µM | 49% | > 50 µM | > 50 µM | – | > 50 µM | – | – | – | – | –
COc1cc(F)ccc1-c1ncnc(Nc2cccc(CS(C)(=O)=NC(=O)COCCOCCOCC(=O)NCCNc3cccc4c3C(=O)N(C3CCC(=O)NC3=O)C4=O)c2)n1 (configuration not stated) | 17.5 µM | 13.2 µM | 51% | 18.4 µM | 0.27 µM | 0.0149 µM | 0% | 12.2 µM | 0.65 µM | – | 20.8 µM | – | – | – | – | –
COc1cc(F)ccc1-c1ncnc(Nc2cccc(CS(C)(=O)=NC(=O)CCc3cn(CCCCCC(=O)NCCNc4cccc5c4C(=O)N(C4CCC(=O)NC4=O)C5=O)nn3)c2)n1 (configuration not stated) | 10.3 µM | 8.35 µM | 88.8% | 16.2 µM | 0.72 µM | 0.0114 µM | 66% | 16.4 µM | 0.99 µM | – | 24.5 µM | – | – | – | – | –
COc1cc(N2CCN(CCCCCC(=O)NCCNc3cccc4c3C(=O)N(C3CCC(=O)NC3=O)C4=O)CC2)ccc1-c1ncnc(Nc2cccc(CS(C)(=N)=O)c2)n1 (configuration not stated) | > 50 µM | > 50 µM | 62% | > 50 µM | 7.71 µM | 8.11 µM | 24% | > 50 µM | > 50 µM | – | > 50 µM | – | – | – | – | –
COc1cc(N2CCN(CCCCCCCC(=O)NCCNc3cccc4c3C(=O)N(C3CCC(=O)NC3=O)C4=O)CC2)ccc1-c1ncnc(Nc2cccc(CS(C)(=N)=O)c2)n1 (configuration not stated) | > 50 µM | > 50 µM | 33% | > 50 µM | 4.9 µM | 6.87 µM | 23% | > 50 µM | > 50 µM | – | > 50 µM | – | – | – | – | –
COc1cc(F)ccc1-c1ncnc(Nc2cccc(CS(C)(=O)=NC(=O)CCCCCC(=O)NCCNc3cccc4c3C(=O)N(C3CCC(=O)NC3=O)C4=O)c2)n1 (configuration not stated) | 16.4 µM | 1.44 µM | 88.8% | 6.68 µM | 0.18 µM | 0.0144 µM | 66% | 8.04 µM | 1.11 µM | – | 5.34 µM | – | – | – | – | –
COc1cc(F)ccc1-c1ncnc(Nc2cccc(CS(C)(=O)=NC(=O)CCCCCCCCCC(=O)NCCNc3cccc4c3C(=O)N(C3CCC(=O)NC3=O)C4=O)c2)n1 (configuration not stated) | 8.61 µM | 2.28 µM | 100% | 1.72 µM | 0.039 µM | 0.0107 µM | 99% | 3.23 µM | 0.38 µM | 0.0312 µM | 4.79 µM | – | – | – | – | –

Further lines, with some results ahead:

IC50 (HepG2) | IC50 (A549) | Activity [1] | IC50 (B16) | IC50 (MV4-11 [2]) | IC50 (CDK9/cyclin T1) | Activity [3] | IC50 (HCT-116) | IC50 (MOLM-13) | DC50 [4] | IC50 (MCF7) | SMILES | Activity (MV4-11 [5]) | Activity (MV4-11 [6]) | Activity (MV4-11 [7]) | Activity (MV4-11 [8]) | viability at 0.5 µM (MV4-11 [9])
4.65 µM | 4.14 µM | 100% | 3.07 µM | 0.18 µM | 0.00925 µM | 100% | 5.51 µM | 0.2 µM | 0.0103 µM | 11.4 µM | COc1cc(F)ccc1-c1ncnc(Nc2cccc(CS(C)(=O)=NC(=O)CCc3cn(CCCCCCCC(=O)NCCNc4cccc5c4C(=O)N(C4CCC(=O)NC4=O)C5=O)nn3)c2)n1 (configuration not stated) | – | – | – | – | –
8.51 µM | 6.15 µM | 100% | 3.35 µM | 0.25 µM | 0.00935 µM | 99% | 3.1 µM | 0.48 µM | – | 10.2 µM | COc1cc(F)ccc1-c1ncnc(Nc2cccc(CS(C)(=O)=NC(=O)COCCOCCOCC(=O)NCCCCCNc3cccc4c3C(=O)N(C3CCC(=O)NC3=O)C4=O)c2)n1 (configuration not stated) | – | – | – | – | –
2.7 µM | 3.29 µM | 0% | 1.47 µM | 0.56 µM | – | 0% | 2.94 µM | 0.2 µM | – | 5.52 µM | COc1cc(F)ccc1-c1ncnc(Nc2cccc(C[S@](C)(=N)=O)c2)n1 [ATUVECICLIB] | 21.1% | 4.99% | 15.7% | 0.26% | 78.6%
4.15 µM | 11.9 µM | 95% | 3.5 µM | 0.45 µM | 0.0139 µM | 65% | 1.42 µM | 0.47 µM | – | 8.02 µM | COc1cc(F)ccc1-c1ncnc(Nc2cccc(CS(C)(=O)=NC(=O)CCCCCC(=O)NCCCCCNc3cccc4c3C(=O)N(C3CCC(=O)NC3=O)C4=O)c2)n1 (configuration not stated) | – | – | – | – | –
3.36 µM | 3.21 µM | 98% | 1.75 µM | 0.07 µM | 0.0102 µM | 98% | 3 µM | 0.13 µM | – | 5.18 µM | COc1cc(F)ccc1-c1ncnc(Nc2cccc(CS(C)(=O)=NC(=O)CCC(=O)CCC(=O)NCCNc3cccc4c3C(=O)N(C3CCC(=O)NC3=O)C4=O)c2)n1 (configuration not stated) | – | – | – | – | –
